Counter-ions that a name gives are not always drawn.
How the values were obtained:
[1] = at 20° C.; cited from earlier work
[2] = mouse, in vivo, 4 mg/kg, 5 days

brain concentration, nasal versus oral administration [2]	SMILES	water solubility [1]
–	CC(C)OC(=O)[C@H](C)N[P@](=O)(CO[C@H](C)Cn1cnc2c(N)ncnc21)Oc1ccccc1 [Tenofovir alafenamide]	about 4.86 mg/ml
more than 4 fold	CC(C)OC(=O)OCOP(=O)(CO[C@H](C)Cn1cnc2c(N)ncnc21)OCOC(=O)OC(C)C [Tenofovir disoproxil fumarate]	–
